Paper PMC4303146, “Investigation of cyanine dyes for in vivo optical imaging of altered mitochondrial membrane potential in tumors” (Cancer Medicine, 2014)

Assays:
[1] = Photophysical properties (fluorescence spectroscopy, quantum yield); format: physicochemical
Experimental: IC7-1 derivatives were dissolved in chloroform or 5% FBS to give a concentration of 1 μmol/L for fluorescence spectroscopy analysis. Excitation spectra were measured following the emission at 850 nm, and emission spectra were measured following excitation at 823 nm. Quantum yields were determined using a Fluorolog-3 spectrofluorometer equipped with an integrating sphere.

HeLa cells [2] = assay: Cellular localization study (fluorescence microscopy with NAO mitochondria marker); format: cell-based, human; conditions: 1 μmol/L, 60 min, NAO 100 nmol/L
Experimental: HeLa cells (3 × 10^5 cells) were cultured in a poly-L-lysine coated glass bottom dish for 24 h at 37°C before use. Cells were washed twice with phosphate-buffered saline (PBS) and then incubated with the IC7-1 derivative dissolved in dimethyl sulfoxide (DMSO) (1 μmol/L final concentration) in DMEM supplemented with 5% FBS and 1% penicillin and streptomycin for 60 min. To determine the dye localization, mitochondria were labeled with NAO (100 nmol/L final concentration) for 20 min before completion of the incubation with IC7-1 derivative. Next, the cells were washed twice each with DMEM and PBS. Cells were viewed with a fluorescence microscope under a 100× oil-immersion objective lens. MetaMorph® software (Molecular Devices, LLC, Sunnyvale, CA) was used for imaging analysis.

BSA = BSA (Bos taurus, UniProt P02769); assay: Association constants of IC7-1 derivatives to albumin (fluorimetric titration); format: binding, bovine; conditions: dye 1 µM, BSA 0-1.0 µM, 30 min; read-out: Ka, association constant of dye-albumin complex (converted)
Chain of BSA (P02769 25-607): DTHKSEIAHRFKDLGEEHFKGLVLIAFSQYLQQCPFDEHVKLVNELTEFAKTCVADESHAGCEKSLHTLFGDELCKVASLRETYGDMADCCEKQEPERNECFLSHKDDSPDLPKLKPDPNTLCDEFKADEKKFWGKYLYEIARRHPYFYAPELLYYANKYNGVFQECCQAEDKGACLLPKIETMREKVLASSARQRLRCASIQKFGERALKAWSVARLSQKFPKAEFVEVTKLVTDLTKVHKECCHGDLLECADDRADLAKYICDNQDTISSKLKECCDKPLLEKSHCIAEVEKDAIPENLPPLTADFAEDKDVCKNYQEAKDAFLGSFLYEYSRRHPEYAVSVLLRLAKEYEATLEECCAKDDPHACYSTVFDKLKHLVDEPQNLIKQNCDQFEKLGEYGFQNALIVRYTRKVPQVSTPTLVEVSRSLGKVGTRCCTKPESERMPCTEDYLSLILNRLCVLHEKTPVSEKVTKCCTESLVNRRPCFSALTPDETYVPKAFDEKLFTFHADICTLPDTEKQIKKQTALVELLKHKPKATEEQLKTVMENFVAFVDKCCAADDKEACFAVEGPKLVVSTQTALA
Experimental: Binding studies of IC7-1 derivatives to albumin were conducted as reported previously (Beckford G et al. The solvatochromic effects of side chain substitution on the binding interaction of novel tricarbocyanine dyes with human serum albumin. Talanta 2012;92: 45-52). Briefly, IC7-1 derivatives (1 µM final concentration) were incubated with BSA (0, 0.4, 0.6, 0.8, and 1.0 µM) for 30 min to equilibrate. The fluorescence intensity was measured following the excitation at 823 nm and the emission from 840 to 900 nm. The interaction between dye D and albumin A can be expressed by Eq. 1:
The association constant for the dye-albumin complex formation can be expressed by Eq. 2:
Then, the association constant Ka of the dye-albumin complex was calculated from the data for the fluorimetric titration of the dye with albumin using Eq. 3:
1/ΔF = 1/k[D] + (1/(k[D]Ka))·(1/[A]) (3)
where k is a constant depending on the instrumentation and quantum efficiency of the process.
Therefore, a plot of the reciprocal of ΔF versus the reciprocal of albumin concentration gives a straight line. The association constant was calculated by dividing the intercept by the slope of the line.

HeLa cell xenograft = assay: In vivo imaging study in HeLa cell xenograft mice; conditions: for Tumor fluorescence intensity group from ROI analysis / Liver accumulation and excretion: 10 nmol i.v.; for Liver accumulation and excretion: ventral imaging 3-72 h
Experimental: Animal experiments were conducted in accordance with institutional guidelines and were approved by the Kyoto University Animal Care Committee. […] HeLa cells (2 × 10^6 cells in 100 μL of PBS) were subcutaneously inoculated into the right hind legs of mice. Fourteen days after implantation, mice were used for the imaging study.
Clairvivo® OPT measurement and display software ver. 2.6.0.0. (SHIMADZU Co.) was used for imaging analysis.
Exposure time was 5s for the scan at 3 h, and 3s for the other scans. Clairvivo® OPT measurement and display software ver. 2.6.0.0. (SHIMADZU Co., Kyoto, Japan) was used for imaging analysis.

HeLa cells [3] = assay: Cellular uptake study with uncoupler CCCP; format: cell-based, human; conditions: dye 1 μmol/L, 60 min, CCCP 0-25 μmol/L
Experimental: A cellular uptake study was conducted as reported previously. Briefly, the buffer solution (pH 7.4) for the cellular uptake study was composed of NaCl ([…]), KCl (5.4 mmol/L), CaCl2 (1.2 mmol/L), MgSO4 (0.8 mmol/L), NaH2PO4 (0.8 mmol/L), dextrose (5.6 mmol/L), and 4-(2-hydroxyethyl)-1-piperazineethanesulfonic acid) (5 mmol/L). HeLa cells (1 × 10^6 cells/mL buffer solution) were incubated with carbonyl […] m-chlorophenylhydrazone (CCCP; 0, 0.1, 0.25, 0.5, 0.75, 1, 2.5, 5, 10, and 25 μmol/L) for 5 min at 37°C in 1.5 mL microtubes, followed by the addition of the IC7-1 derivative (1 μmol/L final concentration). After a 60-min incubation with the IC7-1 derivative, the cells were washed twice and resuspended with buffer solution. The fluorescence intensity was measured following the excitation at 823 nm and the emission from 840 to 900 nm, and the normalized intensity (%) was calculated as a percentage of fluorescence intensity obtained with CCCP untreated (0 μmol/L) cells.
The buffer solution (pH 7.4) for the cellular uptake study was composed of NaCl (145 mM), KCl (5.4 mM), CaCl2 (1.2 mM), MgSO4 (0.8 mM), NaH2PO4 (0.8 mM), dextrose (5.6 mM), and HEPES (5 mM). The HeLa cells (1 x 10^6 cells / ml buffer solution) were incubated with an uncoupler (CCCP; 0, 0.1, 0.25, 0.5, 0.75, 1, 2.5, 5, 10, and 25 µM) for 5 min at 37 °C in 1.5 mL microtubes, followed by the addition of IR-780 or IC7-1-Bu (1 µM final concentration) After a 60 min incubation with the dyes, the cells were washed twice and resuspended with buffer solution. Fluorescence intensity was measured following the excitation at 763 nm and the emission from 780 to 880 nm for IR-780, and the excitation at 823 nm and the emission from 840 to 900 nm for IC7-1-Bu. The normalized intensity (%) was calculated as a percentage of fluorescence intensity obtained with CCCP untreated (0 µM) cells.

[4] = molecular target: T1, albumin-binding site I (warfarin-binding site) (Bos taurus, UniProt P02769); assay: Protein-binding assay with competitive inhibitors in 5% FBS; format: in vitro ADME, bovine; conditions: 5% FBS, inhibitor 189 μmol/L, dye 1 μmol/L
T1 construct: incubated for 30 min in PBS (pH 7.4) containing 5% DMSO and 5% FBS; from tissue; host or cells: fetal bovine serum (5% in PBS)
T1 sequence (P02769 25-607): as above
Experimental: A protein-binding assay was conducted as reported previously. Briefly, warfarin, ibuprofen, digoxin, and quinidine were used as competitive inhibitors of albumin-binding sites I, II, III, and […], respectively. The inhibitors (0 and 189 μmol/L) were incubated for 30 min in PBS (pH 7.4) containing 5% DMSO and 5% FBS at room temperature. Immediately after the addition of the IC7-1 derivative (1 μmol/L final concentration), the fluorescence intensity was measured following the excitation at 823 nm and the emission from 840 to 900 nm. The normalized intensity (%) was calculated as a percentage of fluorescence intensity obtained from an inhibitor untreated sample.

Row | SMILES | Φ, quantum yield ([1]; 5% FBS) | ε, extinction coefficient ([1]; 5% FBS) | emmax, maximum emission wavelength ([1]; 5% FBS, 1 μmol/L) | exmax, maximum excitation wavelength ([1]; 5% FBS, 1 μmol/L) | Φ, quantum yield ([1]; CHCl3) | ε, extinction coefficient ([1]; CHCl3) | emmax, maximum emission wavelength ([1]; CHCl3, 1 μmol/L) | exmax, maximum excitation wavelength ([1]; CHCl3, 1 μmol/L) | Subcellular localization of NIR fluorescence (HeLa cells [2]) | Kd (BSA) | Tumor fluorescence intensity group from ROI analysis (HeLa cell xenograft) | Tumor depiction in fluorescence images (HeLa cell xenograft; 10 nmol i.v., 24, 48 and 72 h) | Liver accumulation and excretion (HeLa cell xenograft) | Normalized cellular fluorescence intensity under CCCP treatment (HeLa cells [3]) | Normalized fluorescence intensity with warfarin (albumin site I inhibitor) [4] | Fluorescence intensity at the tumor region (HeLa cell xenograft; 10 nmol i.v., 24, 48 and 72 h)
1 | CN1/C(=C/C=C2\CCCC(/C=C/C3=[N+](C)c4ccc5ccccc5c4C3(C)C)=C2Cl)C(C)(C)c2c1ccc1ccccc21 [IC7-1-Me, 3-Methyl-2-(2-{3-[2-(3-methyl-1,1-dimethyl-1,3-dihydro-benz[e]indol-2-ylidene)-ethylidene]-2-chloro-cyclohex-1-enyl}-vinyl)-1,1-dimethyl-1H-benz[e]indolium] | 0.04 | 120000 mol/L/cm | 846 nm | 823 nm | 0.07 | 330000 mol/L/cm | 841 nm | 823 nm | colocalized fluorescence with NAO | 769 nM | negligible intensity group | negligible signals from the whole body | accumulated in the liver, and were quickly excreted | – | – | –
2 | CCN1/C(=C/C=C2\CCCC(/C=C/C3=[N+](CC)c4ccc5ccccc5c4C3(C)C)=C2Cl)C(C)(C)c2c1ccc1ccccc21 [IC7-1-Et, 3-Ethyl-2-(2-{3-[2-(3-ethyl-1,1-dimethyl-1,3-dihydro-benz[e]indol-2-ylidene)-ethylidene]-2-chloro-cyclohex-1-enyl}-vinyl)-1,1-dimethyl-1H-benz[e]indolium] | 0.04 | 130000 mol/L/cm | 847 nm | 823 nm | 0.06 | 330000 mol/L/cm | 842 nm | 823 nm | colocalized fluorescence with NAO | 556 nM | negligible intensity group | negligible signals from the whole body | accumulated in the liver, and were quickly excreted | – | – | –
3 | CCCCCN1/C(=C/C=C2\CCCC(/C=C/C3=[N+](CCCCC)c4ccc5ccccc5c4C3(C)C)=C2Cl)C(C)(C)c2c1ccc1ccccc21 [IC7-1-Pe, 3-Pentyl-2-(2-{3-[2-(3-pentyl-1,1-dimethyl-1,3-dihydro-benz[e]indol-2-ylidene)-ethylidene]-2-chloro-cyclohex-1-enyl}-vinyl)-1,1-dimethyl-1H-benz[e]indolium] | 0.03 | 90000 mol/L/cm | 847 nm | 823 nm | 0.06 | 330000 mol/L/cm | 845 nm | 823 nm | weak or negligible fluorescence in the NIR region | 625 nM | mild intensity group | Tumors were clearly depicted | – | reduced cellular fluorescence from treatment with a low CCCP concentration | specifically bound to albumin | –
4 | CCCN1/C(=C/C=C2\CCCC(/C=C/C3=[N+](CCC)c4ccccc4C3(C)C)=C2Cl)C(C)(C)c2ccccc21.[I-] [IR-780, reference compound] | – | – | – | – | – | – | – | – | – | – | – | – | – | almost negligible effect of CCCP | – | –
5 | CCCCCCN1/C(=C/C=C2\CCCC(/C=C/C3=[N+](CCCCCC)c4ccc5ccccc5c4C3(C)C)=C2Cl)C(C)(C)c2c1ccc1ccccc21 [IC7-1-He, 3-Hexyl-2-(2-{3-[2-(3-hexyl-1,1-dimethyl-1,3-dihydro-benz[e]indol-2-ylidene)-ethylidene]-2-chloro-cyclohex-1-enyl}-vinyl)-1,1-dimethyl-1H-benz[e]indolium] | 0.03 | 60000 mol/L/cm | 841 nm | 823 nm | 0.06 | 330000 mol/L/cm | 845 nm | 823 nm | weak or negligible fluorescence in the NIR region | 833 nM | negligible intensity group | negligible signals from the whole body | – | reduced cellular fluorescence from treatment with a low CCCP concentration | – | weak at all time points
